Reference: US20040009196A1, “Use of dhea and some of its derivatives in a cosmetic composition for preventing or treating dermal atrophy” (priority 2000, published 2004)

Tests used:
[1] = test system: skin equivalent sold by the company EPISKIN; experiment: Topical DHEA on reconstructed epidermis: epidermal lipid analysis by HPTLC with [14C]acetate labelling; type: cell-based; details: 2 μl of DHEA at 1×10^−4 M in ethanol, every 48 hours for 6 days, vs ethanol control
Procedure: In this example, 2 μl of DHEA at 1×10^−4 M in ethanol were applied every 48 hours, for 6 days, to a skin equivalent sold by the company EPISKIN (LYON, France), after culturing it for 7 days and incubating overnight with [^14C]acetate (2 μCi/ml). The culture and test media are those contained in the kit sold by the supplier. The control consists of an identical epidermal equivalent undergoing a topical application of 2 μl of ethanol diluted 1/1 000.
At the end of the incubation, the epidermal equivalent is detached from its collagenic support. The preparation of the lipids of the epidermal equivalent, and their analysis by HPTLC or high performance thin-layer chromatography, are carried out according to the technique and with the buffers described by M. Ponec (1991, Adv. Lipid Res., 24: 83-117). At the end of the migration of the lipids, autoradiography of the chromatography plate is carried out overnight.

[2] = test system: skin equivalent sold by the company EPISKIN; experiment: Epidermal differentiation in reconstructed epidermis: transglutaminase and filaggrin immunofluorescence, histological analysis; type: cell-based; details: 2 μl of DHEA at 1×10^−4 M in ethanol, topical, every 48 hours for 6 days

SMILES: C[C@]12CC[C@H](O)CC1=CC[C@@H]1[C@@H]2CC[C@]2(C)C(=O)CC[C@@H]12 [DHEA, dehydroepiandrosterone]
- increase in the epidermal content of phospholipids compared with the control [1]: 35%
- histological analysis: number of granular layers or parakeratosis [2]: no increase in the number of granular layers or in parakeratosis
- modification in epidermal differentiation (expression of transglutaminase and of filaggrin, immunofluorescence labelling) [2]: no modification in epidermal differentiation
